Assay results as given in patent publication US20090023807A1, “Treatment of Cytokine Dysregulation by Using Sn-2 Gamma-Linolenoyl, Gamma-Diho-Molinolenoyl or Arachidonoyl Patty Acid Glycerol Monoesters” (BTG International Limited, priority 2005, published 2009).

Columns and labels:
[1] = test system: TGF-β1; experiment: TGF-β1 production from spleen mononuclear cells of mice fed the monoglyceride by gavage (ELISA); type: in vivo, SJL mice; settings: fed 50 μg; for TGF-β1 production from spleen PBMCs: seven days by gavage
Experimental: After seven days animals were killed and the brain, liver and spleen were removed—the liver and brain frozen at −70° C. and mononuclear cells were isolated from spleens by sieving and density centrifugation on Lymphoprep (Sigma Chemical Co) and cultured at 37° C. in 5% CO2 atmosphere in 5 ml culture tubesat a cell density of 1×10^6 cells/ml in RPMI 1640 medium in 5% foetal calf serum (FCS). Cells were cultured with and without 1 μg/ml or 25 μg/ml concanavalin A (Con A) for approximately 20 hours and the supernatants removed and stored at −70° C. until required. Mouse TGF-β1 was measured in supernatants using a commercially available ELISA (Promega, Madison Wis.).

[2] = test system: TNF-α; settings: cited from earlier work
[3] = Precipitation of the solubilised sn-2 monoglyceride; type: physicochemical; settings: acid pH
[4] = Tolerability of gavage feeding; type: in vivo, SJL mice; settings: higher doses (of 50, 125 and 250 μl), seven days
[5] = Storage stability and rearrangement of the monoglyceride; type: physicochemical
Text: This exemplifies its potential for inclusion in air excluding formats such as capsules or e.g. collapsible bag containers which allow egress of oil without entry of air. A high purity process for its synthesis has also been published in Yang et al, Journal of the Chinese Institute of Chemical Engineers, 34, 617-623 (2003). These processes lend themselves to synthesis of n-3 and n-6 sn-2 monoglycerides by replacing the arachdonoyl or γ-linolenoyl source with the desired acyl group containing molecule.
Boric acid (2.81) g, 0.045 mol, 4 equivalents) was added to a freshly prepared solution of 1,3-O-benzylidene glycerol 2-octa-6Z,9Z,12Z-trienoate (5.0 g, 0.011 mol, 1 equivalent) in trimethyl borate (28 ml, 26.0 g, 0.25 mol, 22 equivalents) under N2. The mixture was stirred and heated in a sealed Teflon bomb at 90° C. for 15 minutes. The resulting cool solution was concentrated in vacuo and the residue heated at 90° C. under vacuum for 5 minutes. […] This process was repeated on the same scale twice more and the combined residues were dissolved in ether (150 ml) and washed with water (2×50 ml). The ether extract (not dried as MgSO4 promotes rearrangement) was concentrated in vacuo, ethanol added to the residue and the solution re-evaporated with ethanol (2×) to remove water. The residual tan oil (15.0 g) was purified by column chromatography on solica gel-boric acid (10:1) (10 g). Elution with DCM and then DCM-methanol (9:1) gave the product as a yellow oil (11.7 g, 73%) HPLC purity 93.4%. This material was stored in a freezer at −20° C. under N2.

[6] = test system: CREAE; experiment: CREAE feeding study; type: in vivo
Text: γ-Linolenic acid (18:3 n-6, or GLA) is known to be rapidly converted to longer-chain omega-6 polyunsaturated fatty acids dihomo-γ-linolenic acid and arachidonic acid in vivo (Phylactos et al 1994, Harbige et al 1995, 2000). Therefore to determine how to increase the level of membrane long chain omega-6 fatty acids in MS the inventors have reviewed their results obtained with several GLA-containing oils:-both fungal (from Mucor javanicus) and plant (Borago officianalis), Evening primrose Oenothera spp. or Blackcurrant Ribes spp) as well as a synthetic tri-GLA oil as GLA delivery systems in an in vivo experimental animal model of MS known as chronic relapsing experimental autoimmune encephalomyelitis (CREAE). […] Importantly blackcurrant seed oil has a low sn-2 GLA with most of the GLA in the sn-1 and sn-3 positions (Lawson and Hughes 1988). […] This would also be consistent with the sn-2 GLA being important i.e. the outer pair sn-1 and sn-3 GLA being enzymatically removed in vivo and probably undergoing oxidation leaving the sn-2 GLA only. This selective hydrolysis arises from the known ability of specific lipases to remove the sn-1 and sn-3 fatty acids from triacylgycerol molecules but an apparent protection of the sn-2 position in vivo (Lawson and Hughes 1988, Kyle 1990).

CCCCC/C=C\C/C=C\C/C=C\CCCCC(=O)OC(CO)CO [Example 1b, glycerol 2-octa-6Z,9Z,12Z-trienoate]
Change % of TGF-β1 production versus control ([1]; Con A 0 μg/ml): 80%
Change % of TGF-β1 production versus control ([1]; Con A 1 μg/ml): 79%
Change % of TGF-β1 production versus control ([1]; Con A 25 μg/ml): 42%
TGF-β1 production from spleen PBMCs ([1]; stimulated, Con A 1 μg/ml): 409 pg/mL
TGF-β1 production from spleen PBMCs ([1]; stimulated, Con A 25 μg/ml): 480 pg/mL
TGF-β1 production from spleen PBMCs ([1]; unstimulated, Con A 0 μg/ml): 377 pg/mL
Activity in reducing TNF-α [2]: inactive
Precipitation [3]: tendency to precipitate
Regurgitation after gavage [4]: prone to regurgitation
Deterioration on storage ([5]; freezer at −20° C. under N2, 21 days): Little if any deterioration
Rearrangement to the 1-γ-Linolenoyl glycerol isomer ([5]; when heated or treated with acids or bases): can undergo rearrangement
Deterioration on storage ([5]; yellow oil, −20° C. under nitrogen, several weeks at least): without deterioration

CCCCC/C=C\C/C=C\C/C=C\CCCCC(=O)OCC(COC(=O)CCCC/C=C\C/C=C\C/C=C\CCCCC)OC(=O)CCCC/C=C\C/C=C\C/C=C\CCCCC [TG-GLA]
Protective effects in CREAE [6]: protective effects similar to that of the borage oil
